In patent US9980927B2, “Use of tapentadol for inhibiting and/or treating depression and anxiety” (Gruenenthal GmbH, priority 2011, dated 2018):

System: patients with inadequately managed, severe chronic low back pain with or without a neuropathic pain component
Assay: Hospital Anxiety and Depression Scale (HADS) depression score; open-label phase IIIb trial, tapentadol prolonged release 50-250 mg bid for up to 12 weeks
Assay type: in vivo, human patients
Description: As used herein, the “depression score” is a value determining the degree of the depression. The scale of depression scores covers the range from 0 to 21, wherein the degree of the depression is high in case of high values and low in case of low values. In a group of tested subjects, typically the mean or mediate values of depression scores are determined. The mean value is the sum of all depression scores divided by the number of subjects. The mediate value is the middle depression score in the set of determined scores. Preferably, the “depression score” is defined as in the experimental section.
A subgroup suffering from neuropathic pain due to lumbar radiculopathy was also investigated.
This was a multicenter, multinational, open-label, effectiveness phase IIIb trial to evaluate effectiveness and safety of tapentadol prolonged release treatment in patients with inadequately managed, severe chronic low back pain with or without a neuropathic pain component. Patients taking WHO Step II analgesics discontinued those analgesics before starting study medication; patients taking Step I analgesics and/or centrally acting co-analgesics continued on the same dose. […] All patients received tapentadol prolonged release (50-250 mg bid) for up to 12 weeks (5-week titration period and a 7-week maintenance period). Tapentadol immediate release (IR) 50 mg (twice a day, hours apart) was permitted (combined total daily dose of tapentadol prolonged release and tapentadol IR, 500 mg/day). The primary efficacy endpoint was the change from Baseline to Week 6 (when tapentadol prolonged release doses were stable) in average pain intensity on the 11-point NRS-3 using the last observation carried forward (LOCF) for imputing missing scores. The painDETECT questionnaire was used to evaluate the likelihood of a neuropathic pain component of low back pain; patients were classified as painDETECT “negative,” “unclear,” or “positive.” The population of patients classified as painDETECT negative was limited to approximately 30% of the total population.
In the painDETECT positive trial population the “diagnosis of lumbar radiculopathy” was evaluated which was defined per study protocol according following criteria: • typical dermatomal pain (radiating beyond the knee towards the foot, pain evoked by stretching within distribution of the ischiadic/femoral nerve) • signs of root dysfunction: • such as sensory impairment, motor symptoms from compression of lumbar nerve root (L4, L5, S1). • and/or absent or diminished quadriceps femoris or triceps surae reflexes. • and/or quantitative sensory testing (QST) deficit and pain distribution present in the same dermatomal area.
All subjects completed Short Form-36 (SF-36) and EuroQol-5 Dimension (EQ-5D) questionnaires and the Hospital Anxiety and Depression Scale (HADS). The Patient Global Impression of Change (PGIC) and Clinical global impression of change (CGIC) were also used as secondary endpoints. For both tests, patients completed the statement, “since I began trial treatment, I would rate my overall condition as,” using 7 possible responses (“very much worse” to “very much improved”). Adverse events were recorded throughout the trial.
In the following • (i) N is the number of subjects of the specified diagnosis group, • (ii) n is the number of subjects with data available, • (iii) “Mean” is the mean score of the subjects, i.e. the sum of all scores is divided by the number of subjects, • (iv) SD is the standard deviation, • (v) “Median” is the median score of the subjects, i.e. the middle score in the set of scores, • (vi) “Range” is the range of scores of the subjects, i.e. the range defined by the lowest and the highest score of the set of scores. First, the depression scores are presented. The total number of subjects in the clinical study: N=175

[1] = Visit 8, presumed neuropathic pain component N=41
[2] = Visit 8, presumed or defined neuropathic
[3] = Visit 8, presumed or defined neuropathic pain component N=126
[4] = Visit 8, subjects with nociceptive pain N=49
[5] = Visit 9, defined neuropathic pain N=85
[6] = Visit 9, positive diagnosis of lumbar radiculopathy-neuropathic pain subset N=44
[7] = Visit 9, presumed neuropathic pain component N=41
[8] = Visit 9, presumed or defined neuropathic pain component N=126
[9] = Visit 9, subjects with nociceptive pain N=49
[10] = Visit 10, defined neuropathic pain N=85
[11] = Visit 10, positive diagnosis of lumbar radiculopathy-neuropathic pain subset N=44
[12] = Visit 10, presumed neuropathic pain component N=41
[13] = Visit 10, presumed or defined neuropathic pain component N=126
[14] = Visit 10, subjects with nociceptive pain N=49
[15] = Visit 11, defined neuropathic pain N=85
[16] = Visit 11, positive diagnosis of lumbar radiculopathy-neuropathic pain subset N=44
[17] = Visit 11, presumed neuropathic pain component N=41
[18] = Visit 11, presumed or defined neuropathic pain component N=126
[19] = Visit 11, subjects with nociceptive pain N=49
[20] = Visit 12, defined neuropathic pain N=85
[21] = Visit 12, positive diagnosis of lumbar radiculopathy-neuropathic pain subset N=44
[22] = Visit 12, presumed neuropathic pain component N=41
[23] = Visit 12, presumed or defined neuropathic
[24] = Visit 12, presumed or defined neuropathic pain component N=126
[25] = Visit 12, subjects with nociceptive pain N=49

CC[C@@H](c1cccc(O)c1)[C@@H](C)CN(C)C [tapentadol, (−)-(1R,2R)-3-(3-dimethylamino-1-ethyl-2-methyl-propyl)-phenol]
Depression score Median (Visit 8, positive diagnosis of lumbar radiculopathy-neuropathic pain subset N=44): 6.0
Depression score Mean (SD) [1]: 6.4 (4.24)
Depression score Median [1]: 6.0
Depression score change from baseline Mean (SD) [2]: −1.9 (3.30)
Depression score change from baseline Median [2]: −1.0
Depression score Mean (SD) [3]: 6.4 (4.24)
Depression score Median [3]: 6.0
Depression score Mean (SD) [4]: 5.5 (3.90)
Depression score Median [4]: 4.5
Depression score change from baseline Mean (SD) (Visit 8, total): −1.6 (3.09)
Depression score change from baseline Median (Visit 8, total): −1.0
Depression score Mean (SD) (Visit 8, total subjects N=175): 6.2 (4.16)
Depression score Median (Visit 8, total subjects N=175): 6.0
Depression score Mean (SD) [5]: 6.5 (5.06)
Depression score Median [5]: 6.0
Depression score Mean (SD) [6]: 6.2 (4.63)
Depression score Median [6]: 7.5
Depression score Mean (SD) [7]: 6.4 (4.32)
Depression score Median [7]: 6.0
Depression score Mean (SD) [8]: 6.5 (4.81)
Depression score Median [8]: 6.0
Depression score Mean (SD) [9]: 5.4 (3.49)
Depression score Median [9]: 5.0
Depression score Mean (SD) (Visit 9, total subjects N=175): 6.1 (4.48)
Depression score Median (Visit 9, total subjects N=175): 6.0
Depression score Mean (SD) [10]: 6.5 (5.04)
Depression score Median [10]: 6.0
Depression score Mean (SD) [11]: 6.2 (4.50)
Depression score Median [11]: 7.0
Depression score Mean (SD) [12]: 6.4 (5.34)
Depression score Median [12]: 5.0
Depression score Mean (SD) [13]: 6.5 (5.09)
Depression score Median [13]: 6.0
Depression score Mean (SD) [14]: 5.5 (3.34)
Depression score Median [14]: 5.5
Depression score Mean (SD) (Visit 10, total subjects N=175): 6.2 (4.66)
Depression score Median (Visit 10, total subjects N=175): 6.0
Depression score Mean (SD) [15]: 5.9 (4.70)
Depression score Median [15]: 5.5
Depression score Mean (SD) [16]: 6.0 (4.69)
Depression score Median [16]: 6.5
Depression score Mean (SD) [17]: 6.4 (5.11)
Depression score Median [17]: 5.0
Depression score Mean (SD) [18]: 6.0 (4.80)
Depression score Median [18]: 5.0
Depression score Mean (SD) [19]: 5.6 (4.04)
Depression score Median [19]: 5.0
Depression score Mean (SD) (Visit 11, total subjects N=175): 5.9 (4.59)
Depression score Median (Visit 11, total subjects N=175): 5.0
Depression score change from baseline Mean (SD) (Visit 12): −1.5 (3.30)
Depression score change from baseline Median (Visit 12): −2.0
Depression score change from baseline Mean (SD) (Visit 12, defined neuropathic): −2.2 (3.31)
Depression score change from baseline Median (Visit 12, defined neuropathic): −2.0
Depression score Mean (SD) [20]: 5.8 (4.76)
Depression score Median [20]: 5.0
Depression score change from baseline Mean (SD) (Visit 12, lumbar radiculopathy): −2.1 (3.30)
Depression score change from baseline Median (Visit 12, lumbar radiculopathy): −1.0
Depression score change from baseline Mean (SD) (Visit 12, nociceptive): −0.5 (2.86)
Depression score change from baseline Median (Visit 12, nociceptive): 0.0
Depression score Mean (SD) [21]: 5.3 (4.09)
Depression score Median [21]: 5.0
Depression score Mean (SD) [22]: 6.2 (4.66)
Depression score Median [22]: 5.0
Depression score change from baseline Mean (SD) [23]: −2.0 (3.30)
Depression score change from baseline Median [23]: −2.0
Depression score Mean (SD) [24]: 5.9 (4.70)
Depression score Median [24]: 5.0
Depression score Mean (SD) [25]: 4.9 (3.13)
Depression score Median [25]: 4.0
Depression score change from baseline Mean (SD) (Visit 12, total): −1.6 (3.24)
Depression score change from baseline Median (Visit 12, total): −2.0
Depression score Mean (SD) (Visit 12, total subjects N=175): 5.7 (4.35)
Depression score Median (Visit 12, total subjects N=175): 5.0
efficacy against depression (conclusion from the clinical data): significant efficacy
depression (measured with HADS) (patient sub-population with low back pain with a neuropathic component): significant improvement
